Assay results published in patent EP0291007A1, “Rhodanine derivative, process for preparing the same and pharmaceutical composition containing the same” (KAKEN PHARMACEUTICAL CO., LTD., priority 1987, dated 1988).

Test system: accumulation of sorbitol in nervous tissues
Assay: Inhibiting activity of the accumulation of sorbitol in nervous tissues of streptozotocin-diabetic rats
Type: in vivo, SD male rats
Settings: comparison compounds with linear alkyl group at 5-position; dose not stated

Row | Compound | inhibition of the accumulation of sorbitol
1 | CCCCCCCC1SC(=S)N(CC(=O)O)C1=O (centres unmarked) [3-carboxymethyl-5-n-heptylrhodanine] | hardly inhibited the accumulation of sorbitol
2 | CCCCC1SC(=S)N(CC(=O)O)C1=O (centres unmarked) [3-carboxymethyl-5-n-butylrhodanine] | hardly inhibited the accumulation of sorbitol
